The subject of one data set is radiation pneumonitis. Set-up: method as in Gao et al., 2013. Conditions: delivered as late as 35 days after radiation; ref Gao et al., 2013; cited from earlier work.
The conditions of data set [1]: control (nonirradiated) rats; base parameter estimate, two-compartment model.
Source text: (§1) WAG/RijCmcr female rats were irradiated without the use of anesthetics at 11–12 weeks of age weighing ∼155 g. All irradiations were done between 8–11 am. For leg-out PBI, non-anesthetized rats were immobilized in a plastic jig and irradiated using a XRAD-320 orthovoltage x-ray system (Precision X-Ray, North Branford, Connecticut). […] During the irradiation, each rat was confined in a chamber which allows irradiation of two rats simultaneously. One hind limb of each rat was carefully externalized from the chamber and shielded with a 0.25-inch lead block. The dose to this leg was 2 Gy. The dual-chambered jig was placed on a plane perpendicular to the beam direction, with distance from source to the midline of rats set at 61 cm. […] The irradiation field at midline was large enough to cover both chambers with adequate (at least 2 cm) margins. Supportive care was provided to rats receiving 13 Gy. Supportive care consisted of delivery of the antibiotic Enrofloxacin (10 mg/kg/day) from days 1–14 in the drinking water, and hydration by daily subcutaneous injection of saline (40 ml/kg/day) from days 3–7, post-irradiation.
(§2) Aliquots (0.1 ml) of rat plasma or urine were extracted with ∼3 volumes of cold acidified methanol spiked with enalaprilat as an internal standard (0.3 ml of methanol, 20 µL of 0.1 M HCl and 3 µL of 0.1 mM enalaprilat), mixed well and allowed to stand for 5 min before centrifugation at 14,000 rpm for 5 min at 4°C. […] Samples were injected into C18 reversed phase column (Waters Cortecs UPLC C18 2.1 mm × 50 mm, 1.6 µm) thermostated at 40°C and equilibrated with 0.1% formic acid in water:acetonitrile (95:5).
(§3) Pharmacokinetic (PK) modeling was performed on the data to measure distribution of the drug in different tissues (compartments). The two compartments fitted with observed data were the central compartment (plasma) and the peripheral compartment (internal tissues such as lungs, liver, kidneys, etc.). Administration by gavage was modeled using the gut as a depot to include bioavailability (F) and absorption (k a) from the gut (Figure 1). […] Clearance out of the system was modeled by Cl, the renal clearance rate via urine (Figure 1). The model was fitted using the open-source R package Nonlinear Mixed-Effects Model Development and Simulation (nlmixr) along with related R packages.
(§4) An additive error with compartment-specific variance was assumed for the plasma, peripheral, and urine compartments. Multiple measurements from the same animal were linked via a log-normally distributed multiplicative random effect on the compartment volumes V 2 and V 3.
(§5) The observed measurements are the concentration in plasma, Cplasma and the (cumulative) amount in the urine, Yurine .
(§6) The model was fitted to the plasma and urine data, the accumulation in the peripheral compartment was inferred from the model.
Details of data set [2]: method as in Beermann 1988. The following applies: humans; ref Beermann 1988; cited from earlier work.
Data set [3] is described as follows: in vivo. Conditions: female, WAG/RijCmcr, rat, plasma, urine.
Source text: as §1, §2, §3, §4, §5, §6
Data set [4] is described as follows: Lisinopril excreted in 24 h urine, measured by LC-MS/MS. In kind it is in vivo, WAG/RijCmcr rats. The protocol: Urine was collected in a Nalgene rat metabolic cage. A rat was placed in the metabolic cage with access to food and water for 24 h. After 24 h urine volume was recorded, and an aliquot was frozen and stored at −80°C for LC-MS analyses.
Plasma was measured 1–4 times in each animal, at 0, 0.5, 1, 1.5, 2, 2.5, 3, 4, 5, 6, 8, 24 or 48 h after oral gavage, and 5 min, 1.5 and 24 h after intravenous injection.
Aliquots (0.1 ml) of rat plasma or urine were extracted with ∼3 volumes of cold acidified methanol spiked with enalaprilat as an internal standard (0.3 ml of methanol, 20 µL of 0.1 M HCl and 3 µL of 0.1 mM enalaprilat), mixed well and allowed to stand for 5 min before centrifugation at 14,000 rpm for 5 min at 4°C. The supernatant was passed through a Phree phospholipid removal plate (Phenomenex) and the eluate dried completely under a flux of air and reconstituted with 120 µL of LC-MS mobile phase (5% acetonitrile, 95% water, 0.1% formic acid), spiked with 1 µM of lisinopril-d5 used as a second internal standard. […] Samples were injected into C18 reversed phase column (Waters Cortecs UPLC C18 2.1 mm × 50 mm, 1.6 µm) thermostated at 40°C and equilibrated with 0.1% formic acid in water:acetonitrile (95:5). Compounds were eluted by increasing the concentration of acetonitrile in the mobile phase from 5 to 40% over 2.5 min at the flow rate of 0.5 ml/min.

A short description of data set [5]: in vivo. The following applies: female, WAG/RijCmcr, rat, plasma, po.

Molecules are shown by their SMILES. Like-named read-outs stand apart in the source and are kept apart here.

As to `CCOC(=O)[C@H](CCc1ccccc1)N[C@@H](C)C(=O)N1CCC[C@H]1C(=O)O` [enalapril], the “Efficacy to mitigate radiation pneumonitis” value with radiation pneumonitis is recorded as “had efficacy to mitigate radiation pneumonitis”.
As for `NCCCC[C@H](N[C@@H](CCc1ccccc1)C(=O)O)C(=O)N1CCC[C@H]1C(=O)O` [lisinopril], the Central volume in data set [1] is 0.008 L. The “Peripheral volume (lung)” value in data set [1] was 0.513 L. Further, the Inter-individual variation is reported as 1.8 fold (irradiated rats, 90 min after IV injection); 2.7 fold (irradiated rats, 90 min after oral gavage (data not shown)); 1.6 fold (non-irradiated rats, 90 min after oral gavage (data not shown)); 3-4 fold (nonirradiated rats injected with lisinopril (result not shown)). The “Half-life of prolonged terminal phase” value in data set [2] was 46.7 h. Further, the “Time of peak serum levels” value in data set [2] is 6 to 8 h. Also, the CL renal in the data set “in vivo [3]” is 0.15 mL/min. For the same compound, the half-life (commonly how long it takes for the measured level to halve) in “in vivo [3]” (Model-based circulating half-life, irradiated rats) is 2.5 h; in “in vivo [3]” (Model-based circulating half-life, non-irradiated rats), 2.8 h; in the data set “in vivo [3]” (Model-based estimate of terminal half-life, irradiated rats), 83 h; in the data set “in vivo [3]” (Model-based estimate of terminal half-life, nonirradiated rats), 65 h. Also, the values for the bioavailability in the data set “in vivo [3]” (oral) and in the data set “in vivo [3]” (po) were 25.4% and 19.2%, respectively. The “Measured lisinopril excreted in urine per 300 µg administered, geometric mean” value worked out at 0.46 µmol in data set [4] (IV, no radiation); 0.37 µmol in data set [4] (IV, radiation); 0.072 µmol in data set [4] (gavage, no radiation); 0.11 µmol in data set [4] (gavage, radiation). In addition, the Tmax (usually the time at which the peak concentration occurs) in “in vivo [5]” was in the range of 2 to 3 h.

(Values after publication PMC8111401 (Frontiers in Pharmacology, 2021).)
